Data taken from patent publication US20230000870A1, “METHODS OF TREATING CANCER IN BIOMARKER-IDENTIFIED PATIENTS WITH INHIBITORS OF CYCLIN-DEPENDENT KINASE 7 (CDK7)” (Syros Pharmaceuticals, Inc., priority 2019, published 2023).

Columns and labels:
A673 cells = assay: Inhibition of proliferation of A673 cells (CyQUANT, 72 hour); format: cell-based, human; conditions: read-out: Inhibition of Proliferation of A673 Cells (calculated IC50)
How it was run: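 Read-out is CyQUANT after a 72 h proliferation period, following the kit protocol. Dilution series in 0.5-log steps over the stated 4 μM to […] range. Cells are A673 (human Ewing's sarcoma), grown in DMEM with 10% FBS and 1 mM sodium pyruvate at 37 °C under 5% CO2.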

[1] = molecular target: T1, CDK12 (aa686-1082)/Cyclin K complex (Homo sapiens, UniProt Q9NYV4); assay: CDK12 kinase inhibition assay (Caliper/LabChip EZ Reader); format: biochemical; conditions: CDK12 (aa686-1082)/Cyclin K 50 nM, ATP 2 mM, 3 hr at 27° C.
T1 construct: CDK12 (aa686-1082)/Cyclin K complex
T1 sequence (Q9NYV4 686-1082): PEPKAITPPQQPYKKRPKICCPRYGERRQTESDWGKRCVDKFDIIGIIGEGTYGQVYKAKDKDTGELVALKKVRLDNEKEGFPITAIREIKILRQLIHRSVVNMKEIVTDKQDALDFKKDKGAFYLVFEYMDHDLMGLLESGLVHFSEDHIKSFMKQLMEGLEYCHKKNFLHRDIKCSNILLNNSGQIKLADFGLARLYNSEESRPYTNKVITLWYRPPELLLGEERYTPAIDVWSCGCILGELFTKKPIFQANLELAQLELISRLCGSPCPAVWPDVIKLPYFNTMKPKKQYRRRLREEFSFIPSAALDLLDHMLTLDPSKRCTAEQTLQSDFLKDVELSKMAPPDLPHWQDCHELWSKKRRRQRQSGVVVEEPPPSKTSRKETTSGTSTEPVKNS
T1 sequence (O75909 whole entry partner, the tested form may be a part): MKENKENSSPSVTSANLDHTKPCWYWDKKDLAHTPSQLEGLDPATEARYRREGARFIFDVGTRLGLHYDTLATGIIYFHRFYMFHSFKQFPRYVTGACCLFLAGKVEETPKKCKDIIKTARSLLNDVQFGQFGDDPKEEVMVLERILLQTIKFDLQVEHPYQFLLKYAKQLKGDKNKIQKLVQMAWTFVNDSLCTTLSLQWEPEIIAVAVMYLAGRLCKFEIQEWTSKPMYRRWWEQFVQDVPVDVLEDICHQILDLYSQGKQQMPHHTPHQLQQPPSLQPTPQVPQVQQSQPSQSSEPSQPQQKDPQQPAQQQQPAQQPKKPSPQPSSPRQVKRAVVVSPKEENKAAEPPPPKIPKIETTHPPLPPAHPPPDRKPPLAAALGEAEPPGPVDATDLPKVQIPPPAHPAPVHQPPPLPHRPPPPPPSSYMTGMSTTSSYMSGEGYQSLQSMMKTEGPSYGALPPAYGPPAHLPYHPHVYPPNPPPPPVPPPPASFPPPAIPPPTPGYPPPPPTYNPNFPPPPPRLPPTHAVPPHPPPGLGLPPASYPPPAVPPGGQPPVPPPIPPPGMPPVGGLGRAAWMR
How it was run: (§1)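 Incubation times were set for ~20% (±5%) peptide phosphorylation by uninhibited enzyme: CDK7 35 min, CDK2 35 min (0.5 nM complex, 2 μM 5-FAM-CDK7tide, 2 mM MgCl2), CDK12 3 hr (50 nM, 2 μM 5-FAM-CDK9tide, 2 mM MgCl2), CDK9 15 min (8 nM, 2 μM 5-FAM-CDK9tide, 10 mM MgCl2). Read-out on LabChip EZ Reader, 27° C.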

[2] = molecular target: CDK7/Cyclin H/MAT1 complex (Homo sapiens, UniProt P50613); assay: CDK7 kinase inhibition assay (Caliper/LabChip EZ Reader); format: biochemical; conditions: CDK7/Cyclin H/MAT1 6 nM, ATP 2 mM, 35 min at 27° C.
Sequence of CDK7/Cyclin H/MAT1 complex (P50613 whole entry): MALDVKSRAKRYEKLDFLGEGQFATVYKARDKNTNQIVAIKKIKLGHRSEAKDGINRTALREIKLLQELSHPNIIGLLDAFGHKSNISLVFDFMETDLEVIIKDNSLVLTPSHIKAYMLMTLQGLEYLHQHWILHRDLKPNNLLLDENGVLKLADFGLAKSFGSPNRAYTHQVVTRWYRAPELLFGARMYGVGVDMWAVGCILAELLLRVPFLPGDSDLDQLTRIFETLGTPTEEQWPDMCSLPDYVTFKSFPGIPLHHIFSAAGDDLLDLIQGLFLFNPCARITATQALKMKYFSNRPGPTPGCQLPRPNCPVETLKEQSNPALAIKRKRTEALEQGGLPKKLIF
Sequence of CDK7/Cyclin H/MAT1 complex (P51946 whole entry partner): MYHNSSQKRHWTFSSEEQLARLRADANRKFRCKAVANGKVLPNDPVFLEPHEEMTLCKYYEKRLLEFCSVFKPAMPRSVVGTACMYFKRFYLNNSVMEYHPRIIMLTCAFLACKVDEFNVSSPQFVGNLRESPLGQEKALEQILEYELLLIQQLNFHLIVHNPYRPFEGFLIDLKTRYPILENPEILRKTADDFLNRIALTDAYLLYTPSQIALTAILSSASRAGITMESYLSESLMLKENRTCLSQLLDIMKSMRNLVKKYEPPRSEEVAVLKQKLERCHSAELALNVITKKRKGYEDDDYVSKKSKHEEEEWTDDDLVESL
Sequence of CDK7/Cyclin H/MAT1 complex (P51948 whole entry partner): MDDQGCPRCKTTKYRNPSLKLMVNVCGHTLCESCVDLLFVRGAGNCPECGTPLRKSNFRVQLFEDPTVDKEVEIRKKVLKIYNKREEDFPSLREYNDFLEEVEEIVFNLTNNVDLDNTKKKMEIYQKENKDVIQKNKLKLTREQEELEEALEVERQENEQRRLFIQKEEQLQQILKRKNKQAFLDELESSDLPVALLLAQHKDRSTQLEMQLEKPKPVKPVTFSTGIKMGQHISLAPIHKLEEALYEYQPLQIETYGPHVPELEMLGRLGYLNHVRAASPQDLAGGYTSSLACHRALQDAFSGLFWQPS
How it was run: as §1

HCC70 cells = assay: Inhibition of proliferation of HCC70 cells (CyQUANT Direct, 72 hour); format: cell-based, human; conditions: read-out: Inhibition of Proliferation of HCC70 Cells (calculated IC50)
Description: HCC70 cells: HCC70 cells are a cell line derived from human triple negative breast cancer. Representative compounds of the invention were tested at different concentrations (from 4 μM to […]; 0.5 log serial dilutions) for their ability to inhibit the proliferation of HCC70 cells. Known CDK inhibitors dinaciclib or N-((1S,3R)-3-((5-chloro-4-(1H-indol-3-yl) pyrimidin-2-yl)amino)cyclohexyl)-5-((E)-4-(dimethylamino)but-2-enamido)picolinamide and triptolide were used as positive controls. Cells were grown in ATCC-formulated RPMI-1640 Medium (ATCC 30-2001)+10% FBS. The cells were cultured at 37° C. in a humidified chamber in the presence of 5% CO2. Proliferation assays were conducted over a 72 hour time period. CyQUANT® Direct Cell Proliferation Assay (Life Technologies, Chicago, Ill. USA) was used to assess the anti-proliferative effects of the compounds following manufacturer's directions and utilizing the reagents supplied with the CyQUANT® Direct Cell kit.

CDK2/Cyclin E1 complex = CDK2/Cyclin E1 complex (Homo sapiens, UniProt P24941); assay: CDK2 kinase inhibition assay (Caliper/LabChip EZ Reader); format: biochemical; conditions: CDK2/Cyclin E1 0.5 nM, ATP 2 mM, 35 min at 27° C.
How it was run: as §1

CDK9/Cyclin T1 complex = CDK9/Cyclin T1 complex (Homo sapiens, UniProt P50750); assay: CDK9 kinase inhibition assay (Caliper/LabChip EZ Reader); format: biochemical; conditions: CDK9/Cyclin T1 8 nM, ATP 2 mM, 15 min at 27° C.
Sequence of CDK9/Cyclin T1 complex (P50750 whole entry): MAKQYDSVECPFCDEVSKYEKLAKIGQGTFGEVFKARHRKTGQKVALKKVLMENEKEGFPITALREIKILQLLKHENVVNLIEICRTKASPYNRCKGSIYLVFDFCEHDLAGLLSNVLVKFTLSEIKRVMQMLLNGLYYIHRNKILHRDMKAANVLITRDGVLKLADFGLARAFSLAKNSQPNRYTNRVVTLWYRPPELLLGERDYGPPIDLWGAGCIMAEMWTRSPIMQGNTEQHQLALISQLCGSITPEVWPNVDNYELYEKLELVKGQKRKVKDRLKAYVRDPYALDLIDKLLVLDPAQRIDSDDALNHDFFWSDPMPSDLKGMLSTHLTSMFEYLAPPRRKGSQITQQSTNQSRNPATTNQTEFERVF
Sequence of CDK9/Cyclin T1 complex (O60563 whole entry partner): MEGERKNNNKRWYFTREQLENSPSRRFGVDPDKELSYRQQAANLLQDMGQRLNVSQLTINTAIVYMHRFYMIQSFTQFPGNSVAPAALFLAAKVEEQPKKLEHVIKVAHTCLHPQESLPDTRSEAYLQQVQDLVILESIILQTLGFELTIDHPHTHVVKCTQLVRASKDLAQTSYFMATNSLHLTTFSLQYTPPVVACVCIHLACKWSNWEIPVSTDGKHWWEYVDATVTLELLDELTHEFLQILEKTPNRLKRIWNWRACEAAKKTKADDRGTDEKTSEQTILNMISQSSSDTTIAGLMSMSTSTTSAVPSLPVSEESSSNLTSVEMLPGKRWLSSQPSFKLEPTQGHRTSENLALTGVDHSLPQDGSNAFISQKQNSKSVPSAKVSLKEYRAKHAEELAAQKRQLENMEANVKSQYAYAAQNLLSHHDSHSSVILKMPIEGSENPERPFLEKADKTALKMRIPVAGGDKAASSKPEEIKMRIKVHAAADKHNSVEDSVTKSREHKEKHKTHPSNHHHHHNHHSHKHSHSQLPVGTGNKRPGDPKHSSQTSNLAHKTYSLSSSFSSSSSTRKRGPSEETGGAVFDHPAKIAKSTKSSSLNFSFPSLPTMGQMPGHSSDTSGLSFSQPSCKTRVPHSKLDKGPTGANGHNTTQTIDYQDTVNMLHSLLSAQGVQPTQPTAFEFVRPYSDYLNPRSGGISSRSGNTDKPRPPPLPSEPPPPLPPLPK
How it was run: as §1

Row | IC50 [1] [nM] | IC50 [2] [nM] | IC50 (CDK2/Cyclin E1 complex) [nM] | IC50 (CDK9/Cyclin T1 complex) [nM] | Structure (SMILES) | IC50 (A673 cells) [nM] | IC50 (HCC70 cells) [nM]
1 | 20 to 200 | < 20 | 200 to 5000 | 200 to 5000 | FC(F)(F)c1cnc(NC2CCCNC2)nc1-c1n[nH]c2ccccc12 (stereo not drawn) [Compound 103] | 20 to 200 | < 100
2 | 20 to 200 | 20 to 200 | 200 to 5000 | 200 to 5000 | Clc1cnc(NC2CCCNC2)nc1-c1cnn2ccccc12 (stereo not drawn) [Compound 104] | 20 to 200 | 100 to 1000
3 | 20 to 200 | 20 to 200 | 200 to 5000 | 200 to 5000 | Fc1cccc2c(-c3nc(NC4CCCNC4)ncc3Cl)c[nH]c12 (stereo not drawn) [Compound 107] | < 20 | 100 to 1000
4 | 20 to 200 | < 20 | 200 to 5000 | 200 to 5000 | Fc1ccc2[nH]cc(-c3nc(NC4CCCNC4)ncc3Cl)c2c1 (stereo not drawn) [Compound 109] | 20 to 200 | 100 to 1000
5 | 20 to 200 | < 20 | 200 to 5000 | 200 to 5000 | Cc1cccc2c(-c3nc(NC4CCCNC4)ncc3Cl)c[nH]c12 (stereo not drawn) [Compound 112] | < 20 | < 100
6 | 20 to 200 | < 20 | 200 to 5000 | 200 to 5000 | Clc1cnc(NC2CCCNC2)nc1-c1c[nH]c2ncccc12 (stereo not drawn) [Compound 118] | 20 to 200 | < 100
7 | ≥ 5000 | 20 to 200 | ≥ 5000 | ≥ 5000 | CC(C)c1cnc(NC2CCCNC2)nc1-c1c[nH]c2ccccc12 (stereo not drawn) [Compound 139] | 200 to 5000 | 1000 to 5000
8 | 200 to 5000 | < 20 | 200 to 5000 | 200 to 5000 | CS(=O)(=O)c1cccc2c(-c3nc(NC4CCCNC4)ncc3C(F)(F)F)c[nH]c12 (stereo not drawn) [Compound 141] | < 20 | < 100
9 | 200 to 5000 | < 20 | 200 to 5000 | 200 to 5000 | CCc1cnc(NC2CCCNC2)nc1-c1c[nH]c2c(F)cccc12 (stereo not drawn) [Compound 144] | 20 to 200 | 100 to 1000
10 | 200 to 5000 | 20 to 200 | 20 to 200 | 200 to 5000 | O=C1CCC(Nc2ncc(Cl)c(-c3c[nH]c4ccccc34)n2)CN1 (stereo not drawn) [Compound 159] | 200 to 5000 | 1000 to 5000
11 | 200 to 5000 | < 20 | 200 to 5000 | 200 to 5000 | N#Cc1ccc2c(-c3nc(NC4CCCNC4)ncc3Cl)c[nH]c2c1 (stereo not drawn) [Compound 161] | < 20 | < 100
12 | 200 to 5000 | < 20 | 200 to 5000 | 200 to 5000 | FC(F)(F)c1cnc(NC2CCCNC2)nc1-c1c[nH]c2cnc(Cl)cc12 (stereo not drawn) [Compound 165] | 20 to 200 | 100 to 1000
13 | 200 to 5000 | < 20 | 20 to 200 | 200 to 5000 | Fc1cnc2[nH]cc(-c3nc(NC4CCCNC4)ncc3C(F)(F)F)c2c1 (stereo not drawn) [Compound 166] | < 20 | < 100
14 | 20 to 200 | < 20 | 200 to 5000 | 200 to 5000 | FC(F)(F)c1cnc(NC2CCCNC2)nc1-c1c[nH]c2c(-c3cn[nH]c3)cccc12 (stereo not drawn) [Compound 170] | < 20 | < 100
15 | 200 to 5000 | < 20 | 200 to 5000 | 200 to 5000 | CNC(=O)c1cccc2c(-c3nc(N[C@H]4CCCNC4)ncc3C(F)(F)F)c[nH]c12 [Compound 173] | 20 to 200 | 100 to 1000
16 | 200 to 5000 | < 20 | 200 to 5000 | 20 to 200 | Cc1[nH]ncc1-c1cccc2c(-c3nc(N[C@@H]4CCCNC4)ncc3C(F)(F)F)c[nH]c12 [Compound 175] | < 20 | 1000 to 5000

Row | IC50 [1] [nM] | IC50 [2] [nM] | IC50 (CDK2/Cyclin E1 complex) [nM] | IC50 (CDK9/Cyclin T1 complex) [nM] | Structure (SMILES) | IC50 (A673 cells) [nM] | IC50 (HCC70 cells) [nM]
17 |  |  |  |  | Cn1cc(-c2nc(NC3CCCNC3)ncc2C(F)(F)F)c2ccc(C#N)nc21 (stereo not drawn) [Compound 273] | 200 to 5000 | 1000 to 5000
18 | ≥ 5000 | 20 to 200 | ≥ 5000 | ≥ 5000 | CCN1CC(Nc2ncc(C(F)(F)F)c(-c3c[nH]c4cc(S(C)(=O)=O)ccc34)n2)CC(C)(C)C1 (stereo not drawn) [Compound 369] |  | 100 to 1000
19 | 200 to 5000 | 20 to 200 | ≥ 5000 | ≥ 5000 | N#Cc1ccc2c(-c3nc(N[C@@H]4CNC[C@H](O)C4)ncc3C(F)(F)F)c[nH]c2c1 [Compound 370] |  | 100 to 1000
20 | 200 to 5000 | < 20 | 200 to 5000 | 200 to 5000 | CN(C)S(=O)(=O)c1cccc2c(-c3nc(NC4CCCNC4)ncc3C(F)(F)F)c[nH]c12 (stereo not drawn) [Compound 371] |  | < 100
21 | 200 to 5000 | 20 to 200 | 200 to 5000 | 200 to 5000 | CC1CCNCC1Nc1ncc(C(F)(F)F)c(-c2c[nH]c3ccccc23)n1 (stereo not drawn) [Compound 372] |  | 100 to 1000
22 | ≥ 5000 | 20 to 200 | ≥ 5000 | ≥ 5000 | CC1CCNCC1Nc1ncc(C(F)(F)F)c(-c2c[nH]c3ccccc23)n1 (stereo not drawn) [Compound 373] |  | 1000 to 5000
23 | 20 to 200 | < 20 | 200 to 5000 | 200 to 5000 | FC(F)Sc1ccc2c(-c3nc(NC4CCCNC4)ncc3C(F)(F)F)c[nH]c2c1 (stereo not drawn) [Compound 374] |  | < 100
24 | 200 to 5000 | < 20 | 200 to 5000 | 200 to 5000 | O=S(=O)(c1ccc2c(-c3nc(NC4CCCNC4)ncc3C(F)(F)F)c[nH]c2c1)C(F)F (stereo not drawn) [Compound 375] |  | 100 to 1000
25 | 200 to 5000 | 20 to 200 | 200 to 5000 | ≥ 5000 | CC1(C)CNC[C@@H](Nc2ncc(C(F)(F)F)c(-c3c[nH]c4cc(S(C)(=O)=O)ccc34)n2)C1 [Compound 376] |  | 100 to 1000
26 | 200 to 5000 | < 20 | ≥ 5000 | 200 to 5000 | N#Cc1ccc2c(-c3nc(N[C@@H]4CCC5(CCC5)NC4)ncc3C(F)(F)F)c[nH]c2c1 [Compound 377] |  | 100 to 1000
27 | ≥ 5000 | 20 to 200 | ≥ 5000 | ≥ 5000 | N#Cc1ccc2c(-c3nc(N[C@H]4CCC5(CCC5)NC4)ncc3C(F)(F)F)c[nH]c2c1 [Compound 378] |  | 1000 to 5000
28 | ≥ 5000 | 20 to 200 | ≥ 5000 | ≥ 5000 | CCP(=O)(CC)c1ccc2c(-c3nc(NC4CCCNC4)ncc3C(F)(F)F)c[nH]c2c1 (stereo not drawn) [Compound 379] |  | 1000 to 5000
29 | 200 to 5000 | < 20 | 200 to 5000 | 200 to 5000 | [O-][S+](c1ccc2c(-c3nc(NC4CCCNC4)ncc3C(F)(F)F)c[nH]c2c1)C(F)F (stereo not drawn) [Compound 380] |  | < 100
30 | 200 to 5000 | 20 to 200 | ≥ 5000 | ≥ 5000 | CS(=O)(=O)c1ccc2c(-c3nc(NC4CCCN(C5CC5)C4)ncc3C(F)(F)F)c[nH]c2c1 (stereo not drawn) [Compound 381] |  | 1000 to 5000
31 | 200 to 5000 | < 20 | 200 to 5000 | 200 to 5000 | CC1(C)CNCC(Nc2ncc(Cl)c(-c3c[nH]c4c(S(C)(=O)=O)c(C#N)ccc34)n2)C1 (stereo not drawn) [Compound 382] |  | < 100
